This assay concerns aortic valve vascular smooth muscle tissue. As to the kind of experiment: ALP staining of aortic valve vascular smooth muscle tissue, osteocytogenesis level. In kind it is in vivo, mice. As to conditions: wild-type or eNOS-deficient mice treated with IGF-1 alone; FIG. 2a. As for the experimental part:
Wild-type mice or eNOS-deficient mice which are animal models with the aortic valve calcification were treated with insulin-like growth factor type 1 (IGF-1) alone or treated with dipeptidyl-peptidase 4 (DPP-4) and IGF-1 at the same time. Then, ALP staining was performed on the aortic valve vascular smooth muscle tissue, thereby comparing the […] level of tissue (FIG. 2a). Here, the aortic valve vascular smooth muscle tissue of the wild-type mice treated with nothing or the eNOS-deficient mice was used as a control group.
FIG. 2a are an image and a graph showing verification of the effect of DPP-4 on an action of IGF-1 inhibiting osteocytogenesis in the aortic valve vascular smooth muscle tissue of the wild-type mice or the eNOS-deficient mice.

With “IGF-1: polypeptide having a size of about 7.5 kDa present in a plasma of mammals; SEQ ID NO: 1”, the “osteocytogenesis of aortic valve vascular smooth muscle tissue (ALP staining)” value is listed as “tended to be alleviated”.

For the origin of these results see patent publication US20180031580A1, “USE OF IGF-1 AS PROGNOSTIC FACTOR IN CALCIFICATION OF AORTIC VALVES” (THE ASAN FOUNDATION, priority 2015, published 2018).
